For assay [1], the system named is MCF-7 Tet-off 3β-HSD2 aromatase cells. As to conditions: read-out: EC50, stimulation of growth; cited from earlier work.
Assay [2] concerns MCF-7 Tet-off 3β-HSD1 aromatase cells. To be noted: read-out: EC50, stimulation of growth; cited from earlier work.
Assay [3] deals with T1, human 3β-HSD2 (Homo sapiens, UniProt P26439).
T1 sequence (P26439 1-372): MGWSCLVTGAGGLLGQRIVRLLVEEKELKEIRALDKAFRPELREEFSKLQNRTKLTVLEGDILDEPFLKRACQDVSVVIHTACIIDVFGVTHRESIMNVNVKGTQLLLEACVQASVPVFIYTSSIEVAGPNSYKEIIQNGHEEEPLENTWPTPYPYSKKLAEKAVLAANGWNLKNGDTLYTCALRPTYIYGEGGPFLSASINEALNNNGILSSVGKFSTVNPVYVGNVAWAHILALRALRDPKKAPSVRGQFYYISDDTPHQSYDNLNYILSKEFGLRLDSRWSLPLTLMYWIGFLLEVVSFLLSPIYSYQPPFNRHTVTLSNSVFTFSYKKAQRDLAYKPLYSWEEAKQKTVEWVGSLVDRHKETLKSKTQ
The experiment in a line: Inhibition of 3β-HSD activity of purified enzyme, Dixon analysis. Type of assay: biochemical.

Assay [4] has as its system MCF-7 Tet-off 3β-HSD2 aromatase cells. To be noted: read-out: IC50, proliferation; DHEA-stimulated growth; cited from earlier work.
Assay [5] has as its target T2, human 3β-HSD1 (Homo sapiens, UniProt P14060). The experiment in a line: Inhibition of 3β-HSD activity of purified enzyme, Dixon analysis. Type of assay: biochemical.
The target in assay [6] is T3, H156Y-1 mutant of 3β-HSD1 (Homo sapiens, UniProt P14060, H157Y).
T3 sequence (P14060 1-373 H157Y): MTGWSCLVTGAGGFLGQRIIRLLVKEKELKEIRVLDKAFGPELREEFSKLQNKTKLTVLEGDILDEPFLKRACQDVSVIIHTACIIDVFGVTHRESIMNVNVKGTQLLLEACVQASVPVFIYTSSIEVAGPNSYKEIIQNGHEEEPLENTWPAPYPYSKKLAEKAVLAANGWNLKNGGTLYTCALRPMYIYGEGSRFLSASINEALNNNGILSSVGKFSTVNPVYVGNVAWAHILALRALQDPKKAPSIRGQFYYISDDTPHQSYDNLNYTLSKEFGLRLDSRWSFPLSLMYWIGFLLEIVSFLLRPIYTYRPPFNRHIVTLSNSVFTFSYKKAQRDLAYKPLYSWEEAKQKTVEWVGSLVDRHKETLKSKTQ
Described as above. Type of assay: biochemical.

Assay [7] relates to MCF-7 Tet-off 3β-HSD1 aromatase cells. As to conditions: cited from earlier work.
In assay [8] the test system is other enzymes in steroidogenesis (e.g., 17β-HSD). As to conditions: cited from earlier work.
In assay [9] the target is T1, human 3β-HSD2. As to the kind of experiment: Michaelis-Menten kinetics of 3β-HSD substrate. Type of assay: biochemical. As to conditions: pH 7.4.
Assay [10] deals with T2, human 3β-HSD1. As to the kind of experiment: Michaelis-Menten kinetics of 3β-HSD substrate. Format: biochemical. As to conditions: pH 7.4.
Assay [11] deals with T3, H156Y-1 mutant of 3β-HSD1. As to the kind of experiment: Michaelis-Menten kinetics of 3β-HSD substrate. Type of assay: biochemical. To be noted: Table 4; substrate DHEA 3-100 μM, NAD+ 200 μM, 27° C, pH 7.4.
Assay [12] concerns the target T4, P195R-2 mutant of 3β-HSD2 (Homo sapiens, UniProt P26439, P195R).
T4 sequence (P26439 1-372 P195R): T1 sequence (P26439 1-372) with P195R
As to the kind of experiment: Michaelis-Menten kinetics of 3β-HSD substrate. Type of assay: biochemical. As to conditions: Table 2, substrate DHEA 1–100 μM, NAD+ 0.2 mM, pH 7.4.

Assay [13] addresses T5, R195P-1 mutant of 3β-HSD1 (Homo sapiens, UniProt P14060, R196P).
T5 sequence (P14060 1-373 R196P): T3 sequence (P14060 1-373 H157Y) with Y157H, R196P
The experiment in a line: Michaelis-Menten kinetics of 3β-HSD substrate. Format: biochemical. As to conditions: Table 2, substrate DHEA 1–100 μM, NAD+ 0.2 mM, pH 7.4.

Assay [14] deals with MCF-7 Tet-off 3β-HSD2 aromatase cells. The experiment in a line: Inhibition of DHEA-stimulated proliferation. Format: cell-based, human. As to conditions: for IC50: Homo sapiens, MCF7, 240 h, read-out: IC50, proliferation; for inhibition of growth in the presence of doxycycline: doxycycline 10 ng/ml, DHEA 5.0 nM.
Another assay deals with MCF-7 cells. As to the kind of experiment: Proliferation in the absence of DHEA substrate. Format: cell-based, human.
Assay [15] deals with MCF-7 Tet-off 3β-HSD1 aromatase cells. The experiment in a line: Inhibition of DHEA-stimulated proliferation. As to conditions: for inhibition of growth in the presence of doxycycline: doxycycline 10 ng/ml, DHEA 5.0 nM.
The target in assay [16] is T5, R195P-1 mutant of 3β-HSD1. As to the kind of experiment: Inhibition of 3β-HSD activity of purified enzyme, Dixon analysis. Format: biochemical.
The mark [17] stands for this setting: ratio of proliferation IC50 values.
The mark [18] stands for this setting: Table 2, substrate DHEA 1–100 μM, NAD+ 0.2 mM.
Where [19] appears, read: Table 4, substrate DHEA 3-100 μM, NAD+ 200 μM, 27° C.

Residue numbers refer to the chain shown, from its start. Read-outs that look alike come from different tables or passages of the source.

T2 sequence (P14060 whole entry): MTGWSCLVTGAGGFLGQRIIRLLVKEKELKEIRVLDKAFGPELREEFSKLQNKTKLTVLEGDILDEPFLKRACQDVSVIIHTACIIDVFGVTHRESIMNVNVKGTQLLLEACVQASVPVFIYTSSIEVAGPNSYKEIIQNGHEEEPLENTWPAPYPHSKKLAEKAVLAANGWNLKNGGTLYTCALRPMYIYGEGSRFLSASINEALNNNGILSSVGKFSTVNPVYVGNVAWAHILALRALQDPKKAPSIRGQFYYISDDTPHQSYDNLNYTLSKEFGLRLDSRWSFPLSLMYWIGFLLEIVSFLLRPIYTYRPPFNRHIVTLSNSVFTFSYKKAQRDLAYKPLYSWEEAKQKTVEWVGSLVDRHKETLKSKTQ

The EC50 is the concentration giving half of the maximal effect. For `C[C@]12CC[C@@H]3c4ccc(O)cc4CC[C@H]3[C@@H]1CC[C@@H]2O` [estradiol], the EC50 was 0.32 nM in assay [1] and 0.24 nM in assay [2].
For orientation: Ki means the dissociation constant of the complex between target and ligand, obtained from inhibition or displacement. Low values mean higher affinity, high ones lower affinity. `C[C@]1(O)CC[C@H]2[C@@H]3CC[C@@]45O[C@]4(C)C(O)=C(C#N)C[C@]5(C)[C@H]3CC[C@@]21C` [epostane]: the figures for the Ki (on human 3β-HSD2 [3]; at human 3β-HSD1 [5]; in assay [6]) were 980 nM, 70 nM and 1180 nM, respectively. For the same molecule, the IC50 in assay [4] is 2400 nM; in assay [7] (read-out: IC50, proliferation, DHEA-stimulated growth) it was 200 nM. For the same molecule, in [7] (setting [17]), the “fold higher affinity vs MCF7 Tet-off 3β-HSD2 aromatase cells” value is given as 12 fold. Further, in assay [8], the “effect on other enzymes in steroidogenesis” value is “no effect”.
Usually Km stands for the concentration of substrate that gives half-maximal velocity. For the molecule `C[C@]12CC[C@H](O)CC1=CC[C@@H]1[C@@H]2CC[C@]2(C)C(=O)CC[C@@H]12` [DHEA, dehydroepiandrosterone], the 3β-HSD kcat worked out at 0.145 s⁻¹ at human 3β-HSD2 [9] (setting [18]); 0.118 s⁻¹ on human 3β-HSD2 [9] (setting [19]); 0.055 s⁻¹ at human 3β-HSD1 [10] (setting [18]); 0.055 s⁻¹ on human 3β-HSD1 [10] (setting [19]); 0.118 s⁻¹ in [11]; 0.0933 s⁻¹ in assay [12]. In addition, in assay [13], the 3β-HSD kcat was 0.128 s⁻¹. In addition, the results for the Km in assay [12] (read-out: 3β-HSD Km) and in assay [13] (read-out: 3β-HSD Km) were 7.7 µM and 10.7 µM, respectively.
Take `C[C@]12CC[C@@H]3c4ccc(O)cc4CC[C@H]3[C@@H]1CCC2=O` [estrone]: the EC50 was 0.34 nM in assay [1] and 0.39 nM in assay [2].
As to `N#Cc1ccc(C(c2ccc(C#N)cc2)n2cncn2)cc1` [letrozole], the IC50 in [14] is 0.9 nM. For the same molecule, the “inhibition of growth in the presence of doxycycline” value in assay [14] and in assay [15] was “little change in rate” throughout. Further, the “stimulation of proliferation / ER-agonist activity” value with MCF-7 cells is given as “Neither trilostane nor letrozole stimulated the proliferation”.
With `C[C@]12CC[C@H]3[C@@H](CC[C@@]45O[C@@H]4C(O)=C(C#N)C[C@]35C)[C@@H]1CC[C@@H]2O` [trilostane, 2α-cyano-4α ,5α-epoxy-17β-ol-androstane-3-one], the mode of inhibition entry (on human 3β-HSD2 [3] (Dixon analysis); in assay [16] (Dixon analysis)) was “noncompetitive” throughout. Besides, the IC50 amounted to 4900 nM in [14] and 300 nM in assay [15] (Homo sapiens, MCF7, 240 h, read-out: IC50, proliferation). Further, the “inhibition of growth in the presence of doxycycline” value in assay [14] and in assay [15] was “greatly attenuated” throughout. For the same molecule, the “fold lower Ki for 3β-HSD1 compared to 3β-HSD2” value on human 3β-HSD1 [5] (competitive 3β-HSD1 vs noncompetitive 3β-HSD2) is listed as 16 fold. This molecule displayed a Ki in assay [16] of 2560 ± 220 nM. The “stimulation of proliferation / ER-agonist activity” value in the assay on MCF-7 cells is listed as “Neither trilostane nor letrozole stimulated the proliferation”. Further, in assay [15] (setting [17]), the “fold higher affinity vs MCF7 Tet-off 3β-HSD2 aromatase cells” value turned out to be 16 fold. Moreover, the “effect on other enzymes in steroidogenesis” value in [8] is “no effect”.

The values above are taken from PMC2999670 (The Journal of steroid biochemistry and molecular biology, 2010).
